# Reference: EP4692088A1, “COMPOUND ACTING AS WRN HELICASE INHIBITOR” (SHANGHAI JEYOU PHARMACEUTICAL CO., LTD., priority 2023, dated 2024)
# Tests used:
# HCT116 cells = experiment: Cell proliferation assay (CellTiter-Glo), HCT116; assay type: cell-based; conditions: Homo sapiens, 120 h, HCT-116, 5 days incubation
# Method: (§1) SW48 cells were plated at a density of 1,500 cells/well, and LoVo, HCT116, and SW620 cells were plated at a density of 800 cells/well in a 96-well cell culture plate, and cultured in a 37°C incubator overnight. The test compounds, which were gradient-diluted with DMSO, were added, and after incubation for 5 days, cell viability was detected using a CellTiter-Glo kit. The CellTiter-Glo reagent was equilibrated to room temperature, and an appropriate amount was added to the cell plate, followed by shaking at room temperature for 12 min. The luminescence signal was detected using a microplate reader.
# (§2) The luminescence signal values of the DMSO-treated wells and cell-free wells were used as negative and positive controls, respectively, to calculate the inhibition rate of compound on cell proliferation. The concentration-inhibition curve was fitted using the "log(inhibitor) vs. normalized response -- Variable slope" equation in GraphPad Prism 8 software to obtain the IC50. [formula]
# SW48 cells = experiment: Cell proliferation assay (CellTiter-Glo), SW48; assay type: cell-based; conditions: Homo sapiens, SW48, 120 h, SW-48, 5 days incubation
# Method: as §1, §2
# LoVo = experiment: Cell proliferation assay (CellTiter-Glo), LoVo; assay type: cell-based; conditions: Homo sapiens, 120 h, 5 days incubation
# Method: as §1, §2
# SW620 cells [1] = experiment: Cell proliferation assay (CellTiter-Glo), SW620; assay type: cell-based; conditions: Homo sapiens, 120 h, SW-620 (MSS), 5 days incubation
# Method: as §1, §2
# HCT116 = experiment: γH2AX induction assay (HTRF Phospho-H2AX), HCT116; assay type: cell-based; conditions: Homo sapiens, HCT-116, incubated for 2-3 days, read-out: γ-H2AX induction HCT-116 (EC50 nM)
# Method: (§3) SW48, HCT116, and SW620 cells were plated into 96-well cell culture plates at a density of 15,000-25,000 cells/well and cultured overnight in a 37°C incubator. The test compounds, which were gradient-diluted with DMSO, were added and incubated for 2-3 days. The γ-H2AX level was detected using HTRF Phospho-H2AX (SER139) Detection Kits. The 4× Lysis buffer and Detection buffer were equilibrated to room temperature for later use. The 4× Lysis buffer was diluted to 1× Lysis buffer using ddH2O. After the medium was aspirated, 50 µL of 1× Lysis buffer was added to each well and shaken at room temperature for 30 minutes for lysis. 16 µL of lysate was transferred to a 384-well plate, followed by the addition of 4 µL of diluted antibody mixture (Phospho-H2AX d2 antibody and Phospho-H2AX Eu Cryptate antibody were each diluted 20-fold using Detection buffer, and the two antibodies were then mixed uniformly at a 1:1 volume ratio). The mixture was incubated at room temperature for 2-24 h, and fluorescence signals at […] and 615 nm were detected using a microplate reader. Parallel treatment plates were simultaneously set up in the experiment, and cell viability was detected using the CellTiter-Glo kit. The CellTiter-Glo reagent was equilibrated to room temperature, and an appropriate amount was added to the cell plate, followed by shaking at room temperature for 12 min. The luminescence signal was detected using a microplate reader.
# (§4) The fluorescence signal values of DMSO-treated wells and positive drug-treated wells were used as negative and positive controls, respectively, to calculate the level of γ-H2AX induced by the compounds. The concentration-induction rate curve was fitted using the "log(agonist) vs. response -- Variable slope (four parameters)" equation in GraphPad Prism 8 software to obtain the EC50. [formula] [formula]
# SW48 = experiment: γH2AX induction assay (HTRF Phospho-H2AX), SW48; assay type: cell-based; conditions: Homo sapiens, SW-48, incubated for 2-3 days, read-out: γ-H2AX induction SW-48 (EC50 nM)
# Method: as §3, §4
# SW620 cells [2] = experiment: γH2AX induction assay (HTRF Phospho-H2AX), SW620; assay type: cell-based; conditions: Homo sapiens, SW-620 (MSS), incubated for 2-3 days, read-out: γ-H2AX induction SW-620 (EC50 nM)
# Method: as §3, §4
# [3] = Pharmacokinetic test in mice; assay type: in vivo; conditions: mouse, CD-1 mice, male, oral gavage, 10 mg/kg, plasma
# Method: CD-1 mice were taken as test animals. Example 4, Example 22, and Comparative Example HRO761 were given by gavage. The drug concentrations in mouse plasma at different time points were determined by LC-MS/MS to investigate the pharmacokinetic characteristics of the compounds of the present disclosure in mice.
# • Experimental drugs: Example 4, Example 22, and Comparative Example HRO761; • Animals: CD-1 mice, male, 24-25 g, purchased from Shanghai Jihui Laboratory Animal Care Co.,Ltd.
# An appropriate amount of Example 4, Example 22, and Comparative Example HRO761 was weighed and sequentially added to an appropriate amount of dimethyl sulfoxide, solutol, and saline (final solvent: 5% DMSO + 10% solutol + 85% saline). The mixture was vortexed and sonicated to prepare a 1.0 mg/mL dosing solution.
# Three mice in gavage groups of Example 4, Example 22, and Comparative Example HRO761 were administered by oral gavage after overnight fasting (dose: 10 mg/kg, administration volume: 10 mL/kg), and the mice were fed 4 h after administration.
# (§5) 0.04 mL of blood was collected from the animals before administration and at 0.083 h, 0.25 h, 0.5 h, 1 h, 2 h, 4 h, 6 h, 8 h, and 24 h after administration, and anticoagulated with sodium heparin. Blood samples were placed on ice after collection, and plasma was separated by centrifugation (centrifugation conditions: 8000 rpm, 5 min). The collected plasma was stored at -80°C before analysis.
# LC-MS/MS was used to determine the content of the test compound in mouse plasma after intragastric administration.
# (§6) Based on the calculated concentrations of the compounds in plasma at different time points, the pharmacokinetic parameters of Example 4, Example 22, and Comparative Example HRO761 in mice were calculated using winnonlin software. The pharmacokinetic parameters of Example 4, Example 22, and Comparative Example HRO761 of the present disclosure are shown in Table 13.
# [4] = Pharmacokinetic test in rats; assay type: in vivo; conditions: rat, SD rats, male, oral gavage, 10 mg/kg, plasma
# Method: SD rats were taken as test animals. Example 4, Example 15, and Comparative Example HRO761 were given by gavage. The drug concentrations in rat plasma at different time points were determined by LC-MS/MS to investigate the pharmacokinetic characteristics of Example 4, Example 15, and Comparative Example HRO761 in rats.
# • Experimental drugs: Example 4, Example 15, and Comparative Example HRO761; • Animals: SD rats, male, 240-260 g, purchased from Shanghai Jihui Laboratory Animal Care Co.,Ltd.
# An appropriate amount of Example 4, Example 15, and Comparative Example HRO761 was weighed and added to an appropriate amount of dimethyl sulfoxide, solutol, and saline (final solvent: 5% DMSO + 10% solutol + 85% saline). The mixture was vortexed and sonicated to prepare a 1.0 mg/mL dosing solution.
# The rats in gavage groups (3 rats per group) of Example 4, Example 15, and Comparative Example HRO761 were administered by oral gavage after overnight fasting (dose: 10 mg/kg, administration volume: 10 mL/kg), and the rats were fed 4 h after administration.
# as §5, with “0.2” for “0.04”
# The contents of Example 4, Example 15, and Comparative Example HRO761 in rat plasma after oral administration were determined by LC-MS/MS.
# as §6, with “15,” for “22,”, “rats” for “mice”, “14.” for “13.”
compound,measurement,setting,value
"CCc1c(N2CCN(C(=O)c3ncnc(C)c3O)CC2)c(=O)n2nc(C3=CCOCC3)nc2n1CC(=O)Nc1ccc(C(F)(F)F)cc1Cl [HRO761, reference compound]",IC50,HCT116 cells,143 nM
same,IC50,SW48 cells,144 nM
same,IC50,LoVo,220 nM
same,IC50,SW620 cells [1],> 25000 nM
same,EC50,HCT116,640 nM
same,EC50,SW48,324 nM
same,EC50,SW620 cells [2],> 10000 nM
same,Cmax,[3],11200 ng/mL
same,AUC,[3]; read-out: AUC0-i,28300 ng·h/mL
same,Cmax,[4],6960 ng/mL
same,AUC,[4]; read-out: AUC0-i,63600 ng·h/mL
